Where two headings read alike, the source gives them in different places.
Columns and labels:
[1] = Cell viability assay (MTT) on MCF-10A normal cells; assay type: cell-based; details: human, MCF-10A mammary gland epithelial normal cells, MCF-10A cells, four-day incubation
Description: The impact of compounds 3a–h and 5a–d on cell viability was evaluated using the human mammary (MCF-10A) gland epithelium normal cell line. The MTT assay was used to evaluate the cell viability of 3a–h and 5a–d after a four-day incubation period on MCF-10A cells.[46] Refer to Appendix A for more details.
The effect of new compounds 3a–h and 5a–d on cell viability was evaluated using the MCF-10A (human mammary gland epithelium) normal cell line.
4.2. Biological evaluation
4.2.1 Cell Viability assay (MTT assay)
MTT assay was performed to investigate the effect of the synthesized compounds on mammary epithelial cells (MCF-10A). The cells were propagated in medium consisting of Ham's F-12 medium/ Dulbecco's modified Eagle's medium (DMEM) (1:1) supplemented with 10% foetal calf serum, 2 mM glutamine, insulin (10 μg/mL), hydrocortisone (500 ng/mL) and epidermal growth factor (20 ng/mL). Trypsin ethylenediamine tetra acetic acid (EDTA) was used to passage the cells after every 2-3 days. 96-well flat-bottomed cell culture plates were used to seed the cells at a density of 10^4 cells mL-1. The medium was aspirated from all the wells of culture plates after 24 h followed by the addition of synthesized compounds (in 200 μL medium to yield a final concentration of 0.1% (v/v) dimethyl sulfoxide) into individual wells of the plates. Four wells were designated to a single compound. The plates were allowed to incubate at 37°C for 96 h. Afterwards, the medium was aspirated and 3-[4,5-dimethylthiazol-2-yl]-2,5-diphenyltetrazolium bromide (MTT) (0.4 mg/mL) in medium was added to each well and subsequently incubated for 3 h. The medium was aspirated and 150 μL dimethyl sulfoxide (DMSO) was added to each well. The plates were vortexed followed by the measurement of absorbance at 540 nm on a microplate reader. The results were presented as inhibition (%) of proliferation in contrast to controls comprising 0.1% DMSO.

[2] = system: A-549 lung cancer cell line; experiment: Antiproliferative assay, A-549; assay type: cell-based; details: Homo sapiens, A549; A-549 lung cancer cells; read-out: Antiproliferative activity IC50 ± SEM, A-549
[3] = system: MCF-7 breast cancer cell line; experiment: Antiproliferative assay, MCF-7; assay type: cell-based; details: Homo sapiens, MCF7; MCF-7 breast cancer cells; read-out: Antiproliferative activity IC50 ± SEM, MCF-7
[4] = system: Panc-1 pancreatic cancer cell line; experiment: Antiproliferative assay, Panc-1; assay type: cell-based; details: Homo sapiens; Panc-1 pancreatic cancer cells; read-out: Antiproliferative activity IC50 ± SEM, Panc-1
[5] = system: HT-29 colon cancer cell line; experiment: Antiproliferative assay, HT-29; assay type: cell-based; details: Homo sapiens; HT-29 colon cancer cells; read-out: Antiproliferative activity IC50 ± SEM, HT-29
[6] = system: four human cancer cell lines (A-549, MCF-7, Panc-1, HT-29); experiment: Antiproliferative assay, average over four cancer cell lines; assay type: cell-based; details: Homo sapiens, average IC50 over the four cancer cell lines
EGFR [7] = molecular target: T1, EGFR (Homo sapiens, UniProt P00533); experiment: EGFR inhibitory assay (EGFR-TK assay)
HER2 = HER2 (Homo sapiens, UniProt P04626); experiment: HER2 inhibitory assay (ADP-Glo kinase assay)
[8] = system: four human cancer cell lines; parameters: method as in ref 39 = [39]; Mohassab A. M. Hassan H. A. Abou-Zied H. A. Fujita M. Otsuka M. Gomaa H. A. Youssif B. G. Abdel-Aziz M. J. Mol. Struct. 2024 1297 136953; details: read-out: GI50 against four cancer cell lines; cited from earlier work
EGFR [9] = molecular target: T1, EGFR; parameters: 645–1186; His6 (N); made in house; host or cells: Sf-9 insect cells (baculovirus vectors pBlueBacHis2B / pFASTBacHTc); method as in ref 38 (Makawana et al.); details: ref 38 (Makawana et al.); cited from earlier work
BRAF^V600E [10] = system: BRAF^V600E; parameters: method as in ref 39 = [39]; Mohassab A. M. Hassan H. A. Abou-Zied H. A. Fujita M. Otsuka M. Gomaa H. A. Youssif B. G. Abdel-Aziz M. J. Mol. Struct. 2024 1297 136953; details: cited from earlier work
BRAF^V600E [11] = system: BRAF^V600E; parameters: method as in PMID 33279248; details: cited from earlier work

T1 sequence (P00533 669-1210): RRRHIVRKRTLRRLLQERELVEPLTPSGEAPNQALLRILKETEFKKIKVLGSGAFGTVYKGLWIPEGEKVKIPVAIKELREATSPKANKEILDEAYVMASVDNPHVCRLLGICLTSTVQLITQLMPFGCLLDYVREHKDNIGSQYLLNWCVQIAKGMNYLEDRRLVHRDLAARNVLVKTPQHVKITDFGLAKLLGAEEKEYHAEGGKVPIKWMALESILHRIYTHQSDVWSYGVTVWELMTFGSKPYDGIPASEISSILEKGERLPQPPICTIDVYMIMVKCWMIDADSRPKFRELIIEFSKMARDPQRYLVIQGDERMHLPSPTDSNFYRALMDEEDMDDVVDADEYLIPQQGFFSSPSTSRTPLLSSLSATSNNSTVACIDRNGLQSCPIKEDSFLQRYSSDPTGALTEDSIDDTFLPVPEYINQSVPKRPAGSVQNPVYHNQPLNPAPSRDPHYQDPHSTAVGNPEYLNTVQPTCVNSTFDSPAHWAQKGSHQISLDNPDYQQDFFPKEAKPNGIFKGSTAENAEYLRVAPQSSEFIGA
Chain of HER2 (P04626 676-1255 limits assumed): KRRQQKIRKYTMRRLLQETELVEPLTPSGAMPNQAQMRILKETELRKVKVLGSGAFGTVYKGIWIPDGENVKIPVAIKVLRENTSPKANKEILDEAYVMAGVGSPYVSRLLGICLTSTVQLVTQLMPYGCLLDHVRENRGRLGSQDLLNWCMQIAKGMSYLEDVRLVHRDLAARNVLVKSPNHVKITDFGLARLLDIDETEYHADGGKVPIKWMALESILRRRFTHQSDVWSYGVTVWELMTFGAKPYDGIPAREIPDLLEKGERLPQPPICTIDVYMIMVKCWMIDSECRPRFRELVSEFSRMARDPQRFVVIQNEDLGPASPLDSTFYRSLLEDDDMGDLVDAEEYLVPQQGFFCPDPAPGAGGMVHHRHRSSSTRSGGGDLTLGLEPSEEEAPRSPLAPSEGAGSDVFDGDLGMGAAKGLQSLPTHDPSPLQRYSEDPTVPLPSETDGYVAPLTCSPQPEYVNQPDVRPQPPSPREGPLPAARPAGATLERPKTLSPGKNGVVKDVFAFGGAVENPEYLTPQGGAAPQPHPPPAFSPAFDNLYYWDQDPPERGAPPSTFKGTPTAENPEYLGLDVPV

SMILES	viability at 96 h, 50 µM [1]	IC50 [2]	IC50 [3]	IC50 [4]	IC50 [5]	GI50 [6]	IC50 (EGFR [7])	IC50 (HER2)	GI50 [8]	further results
Cc1ccc2[nH]c(=O)c(C=Nc3ccc(NS(=O)(=O)c4ncccn4)cc3)c(O)c2c1 [Compound 5b, N-(4-(((4-hydroxy-6-methyl-2-oxo-1,2-dihydroquinolin-3-yl)methylene)amino)phenyl)pyrimidine-2-sulfonamide]	90%	39 ± 4 nM	35 ± 4 nM	41 ± 4 nM	40 ± 3 nM	39 nM	85 ± 5 nM	47 ± 3 nM	–	–
Cn1c(=O)c(C=Nc2ccc(NS(=O)(=O)c3ncccn3)cc2)c(O)c2ccccc21 [Compound 5d, N-(4-(((4-hydroxy-1-methyl-2-oxo-1,2-dihydroquinolin-3-yl)methylene)amino)phenyl)pyrimidine-2-sulfonamide]	90%	46 ± 4 nM	42 ± 4 nM	48 ± 4 nM	48 ± 4 nM	46 nM	93 ± 5 nM	53 ± 3 nM	–	melting point: 318 to 320 °C
CC(=NO)c1ccc(NC(=O)c2cc(-c3ccc(S(C)(=O)=O)cc3)nc3ccccc23)cc1 [Compound VIII]	–	–	–	–	–	–	–	–	1200 nM	–
COc1ccc(Oc2nc3ccc(C)cc3cc2/C=N/NC(=O)Cn2cc([N+](=O)[O-])nc2C)cc1 [Compound VII]	–	–	–	–	–	–	–	–	–	IC50 (EGFR [9]): 120 ± 50 nM
C#Cc1cccc(Nc2ncnc3cc(OCCOC)c(OCCOC)cc23)c1 [Erlotinib, reference compound]	–	30 ± 3 nM	40 ± 3 nM	30 ± 3 nM	30 ± 3 nM	–	–	–	–	IC50 (BRAF^V600E [10]): […]; IC50 (BRAF^V600E [11]): […]
COc1cccc2c1C(=O)c1c(O)c3c(c(O)c1C2=O)C[C@@](O)(C(=O)CO)C[C@@H]3O[C@H]1C[C@H](N)[C@H](O)[C@H](C)O1 [doxorubicin]	–	–	–	–	–	–	–	–	1400 nM	–
